PubChem BioAssay AID1259407 (Chemical Carcinogenesis Research Information System (CCRIS), 2018)
Calls of active or inactive are those of the source. The rule behind the calls is not given here.

Tested on: CCRIS mutagenicity, Ames/micronucleus/aberration tests
Assay: CCRIS mutagenicity studies
[1] = Test System: AMES SALMONELLA TYPHIMURIUM, Strain/Indicator: TA98, Metabolic Activation: NONE, Method: PREINCUBATION
[2] = Test System: AMES SALMONELLA TYPHIMURIUM, Strain/Indicator: TA100, Metabolic Activation: NONE, Method: PREINCUBATION

**Q.** Which mutagenic call (Test System: AMES SALMONELLA TYPHIMURIUM, Strain/Indicator: TA98, Metabolic Activation: HAMSTER LIVER S-9, Method: PREINCUBATION) does the source give for `Nc1ccc(N=Nc2ccc3c(c2)C(=O)/C(=N/Nc2ccc(Nc4ccc(N/N=C5/C(=O)c6cc(N=Nc7ccc(N)cc7N)ccc6C=C5S(=O)(=O)O)cc4S(=O)(=O)O)cc2)C(S(=O)(=O)O)=C3)c(N)c1` here?
**A.** active; positive

**Q.** What about the mutagenic call (Test System: AMES SALMONELLA TYPHIMURIUM, Strain/Indicator: TA98, Metabolic Activation: HAMSTER, LIVER, S-9, AROCLOR 1254, Method: STANDARD PLATE) of the same compound?
**A.** active; positive

**Q.** What about the mutagenic call (Test System: AMES SALMONELLA TYPHIMURIUM, Strain/Indicator: TA98, Metabolic Activation: HAMSTER, LIVER, S-9, Method: PREINCUBATION (PRIVAL METHOD)) of the same compound?
**A.** active; positive

**Q.** And the mutagenic call [1]?
**A.** active; positive

**Q.** What about the mutagenic call (Test System: AMES SALMONELLA TYPHIMURIUM, Strain/Indicator: TA98, Metabolic Activation: NONE, Method: STANDARD PLATE) of the same compound?
**A.** active; positive

**Q.** And the mutagenic call (Test System: AMES SALMONELLA TYPHIMURIUM, Strain/Indicator: TA98, Metabolic Activation: RAT LIVER S-9, AROCLOR 1254, Method: PREINCUBATION)?
**A.** active; positive

**Q.** What about the mutagenic call (Test System: AMES SALMONELLA TYPHIMURIUM, Strain/Indicator: TA98, Metabolic Activation: RAT, LIVER, S-9, AROCLOR 1254, Method: STANDARD PLATE) of the same compound?
**A.** active; positive

**Q.** And the mutagenic call (Test System: AMES SALMONELLA TYPHIMURIUM, Strain/Indicator: TA100, Metabolic Activation: HAMSTER LIVER S-9, Method: PREINCUBATION)?
**A.** active; positive

**Q.** What about the mutagenic call (Test System: AMES SALMONELLA TYPHIMURIUM, Strain/Indicator: TA100, Metabolic Activation: HAMSTER, LIVER, S-9, AROCLOR 1254, Method: STANDARD PLATE) of the same compound?
**A.** inactive; negative

**Q.** What about the mutagenic call [2] of the same compound?
**A.** inactive; negative

**Q.** And the mutagenic call (Test System: AMES SALMONELLA TYPHIMURIUM, Strain/Indicator: TA100, Metabolic Activation: NONE, Method: STANDARD PLATE)?
**A.** inactive; negative

**Q.** And the mutagenic call (Test System: AMES SALMONELLA TYPHIMURIUM, Strain/Indicator: TA100, Metabolic Activation: RAT LIVER S-9, AROCLOR 1254, Method: PREINCUBATION)?
**A.** inactive; negative

**Q.** What about the mutagenic call (Test System: AMES SALMONELLA TYPHIMURIUM, Strain/Indicator: TA100, Metabolic Activation: RAT, LIVER, S-9, AROCLOR 1254, Method: STANDARD PLATE) of the same compound?
**A.** inactive; negative

**Q.** And the mutagenic call (Test System: AMES SALMONELLA TYPHIMURIUM, Strain/Indicator: TA1535, Metabolic Activation: HAMSTER, LIVER, S-9, AROCLOR 1254, Method: STANDARD PLATE)?
**A.** active; positive

**Q.** And the mutagenic call (Test System: AMES SALMONELLA TYPHIMURIUM, Strain/Indicator: TA1535, Metabolic Activation: NONE, Method: STANDARD PLATE)?
**A.** inactive; negative

**Q.** What about the mutagenic call (Test System: AMES SALMONELLA TYPHIMURIUM, Strain/Indicator: TA1535, Metabolic Activation: RAT, LIVER, S-9, AROCLOR 1254, Method: STANDARD PLATE) of the same compound?
**A.** inactive; negative

**Q.** What about the mutagenic call (Test System: AMES SALMONELLA TYPHIMURIUM, Strain/Indicator: TA1537, Metabolic Activation: HAMSTER, LIVER, S-9, AROCLOR 1254, Method: STANDARD PLATE) of the same compound?
**A.** active; positive

**Q.** And the mutagenic call (Test System: AMES SALMONELLA TYPHIMURIUM, Strain/Indicator: TA1537, Metabolic Activation: RAT, LIVER, S-9, AROCLOR 1254, Method: STANDARD PLATE)?
**A.** active; positive

**Q.** And the mutagenic call (Test System: AMES SALMONELLA TYPHIMURIUM, Strain/Indicator: TA1538, Metabolic Activation: HAMSTER, LIVER, S-9, AROCLOR 1254, Method: STANDARD PLATE)?
**A.** active; positive

**Q.** What about the mutagenic call (Test System: AMES SALMONELLA TYPHIMURIUM, Strain/Indicator: TA1538, Metabolic Activation: NONE, Method: STANDARD PLATE) of the same compound?
**A.** active; positive

**Q.** And the mutagenic call (Test System: AMES SALMONELLA TYPHIMURIUM, Strain/Indicator: TA1538, Metabolic Activation: RAT, LIVER, S-9, AROCLOR 1254, Method: STANDARD PLATE)?
**A.** active; positive

**Q.** And the mutagenic call (Test System: MOUSE LYMPHOMA, Strain/Indicator: L5178Y (TK+/TK-), Metabolic Activation: NONE, Method: SUSPENSION/PLATE)?
**A.** inactive; negative

**Q.** What about the mutagenic call (Test System: MOUSE LYMPHOMA, Strain/Indicator: L5178Y (TK+/TK-), Metabolic Activation: RAT, LIVER, S-9, AROCLOR 1254, Method: SUSPENSION/PLATE) of the same compound?
**A.** inactive; negative

**Q.** How did the mutagenic call (Test System: AMES SALMONELLA TYPHIMURIUM, Strain/Indicator: TA1535, Metabolic Activation: RAT, LIVER, S-9, KC500 OR PHENOBARBITAL, Method: LIQUID SUSPENSION) turn out when `CCCCN(CCO)N=O` was run?
**A.** active; positive

**Q.** Which mutagenic call (Test System: AMES SALMONELLA TYPHIMURIUM, Strain/Indicator: TA97A, Metabolic Activation: NONE) does the source give for `O=C1C[C@@H]2NCCCNCCCCN(CCCN1)C(=O)[C@@H]1c3cc2ccc3O[C@H]1c1ccc(O)cc1` here?
**A.** inactive; negative

**Q.** What about the mutagenic call (Test System: AMES SALMONELLA TYPHIMURIUM, Strain/Indicator: TA97A, Metabolic Activation: RAT, LIVER, S-9) of the same compound?
**A.** inactive; negative

**Q.** What about the mutagenic call (Test System: AMES SALMONELLA TYPHIMURIUM, Strain/Indicator: TA98, Metabolic Activation: NONE) of the same compound?
**A.** active; positive

**Q.** And the mutagenic call (Test System: AMES SALMONELLA TYPHIMURIUM, Strain/Indicator: TA98, Metabolic Activation: RAT, LIVER, S-9)?
**A.** active; positive

**Q.** And the mutagenic call (Test System: AMES SALMONELLA TYPHIMURIUM, Strain/Indicator: TA100, Metabolic Activation: NONE)?
**A.** active; positive

**Q.** And the mutagenic call (Test System: AMES SALMONELLA TYPHIMURIUM, Strain/Indicator: TA100, Metabolic Activation: RAT, LIVER, S-9)?
**A.** active; positive

**Q.** Which mutagenic call (Test System: AMES SALMONELLA TYPHIMURIUM, Strain/Indicator: TA98, Metabolic Activation: HAMSTER, LIVER, S-9, AROCLOR 1254 (10%), Method: PREINCUBATION) does the source give for `CN(C)CCN(C)C` here?
**A.** inactive; negative

**Q.** What about the mutagenic call [1] of the same compound?
**A.** inactive; negative

**Q.** What about the mutagenic call (Test System: AMES SALMONELLA TYPHIMURIUM, Strain/Indicator: TA98, Metabolic Activation: RAT, LIVER, S-9, AROCLOR 1254 (10%), Method: PREINCUBATION) of the same compound?
**A.** inactive; negative

**Q.** What about the mutagenic call (Test System: AMES SALMONELLA TYPHIMURIUM, Strain/Indicator: TA100, Metabolic Activation: HAMSTER, LIVER, S-9, AROCLOR 1254 (10%), Method: PREINCUBATION) of the same compound?
**A.** inactive; negative

**Q.** What about the mutagenic call [2] of the same compound?
**A.** inactive; negative

**Q.** What about the mutagenic call (Test System: AMES SALMONELLA TYPHIMURIUM, Strain/Indicator: TA100, Metabolic Activation: RAT, LIVER, S-9, AROCLOR 1254 (10%), Method: PREINCUBATION) of the same compound?
**A.** inactive; negative

**Q.** And the mutagenic call (Test System: AMES SALMONELLA TYPHIMURIUM, Strain/Indicator: TA1535, Metabolic Activation: HAMSTER, LIVER, S-9, AROCLOR 1254 (10%), Method: PREINCUBATION)?
**A.** inactive; negative

**Q.** What about the mutagenic call (Test System: AMES SALMONELLA TYPHIMURIUM, Strain/Indicator: TA1535, Metabolic Activation: NONE, Method: PREINCUBATION) of the same compound?
**A.** inactive; negative

**Q.** What about the mutagenic call (Test System: AMES SALMONELLA TYPHIMURIUM, Strain/Indicator: TA1535, Metabolic Activation: RAT, LIVER, S-9, AROCLOR 1254 (10%), Method: PREINCUBATION) of the same compound?
**A.** inactive; negative

**Q.** What about the mutagenic call (Test System: AMES SALMONELLA TYPHIMURIUM, Strain/Indicator: TA1537, Metabolic Activation: HAMSTER, LIVER, S-9, AROCLOR 1254 (10%), Method: PREINCUBATION) of the same compound?
**A.** inactive; negative

**Q.** What about the mutagenic call (Test System: AMES SALMONELLA TYPHIMURIUM, Strain/Indicator: TA1537, Metabolic Activation: NONE, Method: PREINCUBATION) of the same compound?
**A.** inactive; negative

**Q.** And the mutagenic call (Test System: AMES SALMONELLA TYPHIMURIUM, Strain/Indicator: TA1537, Metabolic Activation: RAT, LIVER, S-9, AROCLOR 1254 (10%), Method: PREINCUBATION)?
**A.** inactive; negative
